# According to PubChem BioAssay AID248 (DTP/NCI, 2004):
# Several values for one entry are separate records, joined by “and”; a condition that tells them apart may be missing. Equal values may be shown once. Toxic doses and inconclusive results are not listed.
# Test system: L1210 leukemia ip in BDF1 mice, survival T/C
# Assay: NCI In Vivo Anticancer Drug Screen. Data for tumor model L1210 Leukemia (intraperitoneal) in B6D2F1 (BDF1) mice
# Details: endpoint: mean survival time, higher = longer survival
# Method in brief: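 Each compound was tested against a transplantable tumor grown in mice. The endpoint was survival, with treated animals benchmarked against vehicle controls as a simple ratio.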
# [1] = dose: 25.0 mg/kg/injection, schedule: Q01DX009 (ip), vehicle: saline
# [2] = dose: 50.0 mg/kg/injection, schedule: Q01DX009 (ip), vehicle: saline
# [3] = dose: 100.0 mg/kg/injection, schedule: Q01DX009 (ip), vehicle: saline
# [4] = dose: 100.0 mg/kg/injection, schedule: Q04DX003 (ip), vehicle: saline
# [5] = dose: 50.0 mg/kg/injection, schedule: Q01DX001 (ip), vehicle: Klucel (hydroxypropylcellulose) (HPC)
# [6] = dose: 100.0 mg/kg/injection, schedule: Q01DX001 (ip), vehicle: Klucel (hydroxypropylcellulose) (HPC)
# [7] = dose: 200.0 mg/kg/injection, schedule: Q01DX001 (ip), vehicle: Klucel (hydroxypropylcellulose) (HPC)
# [8] = dose: 200.0 mg/kg/injection, schedule: Q04DX003 (ip), vehicle: saline
# [9] = dose: 400.0 mg/kg/injection, schedule: Q04DX003 (ip), vehicle: saline
# [10] = dose: 100.0 mg/kg/injection, schedule: Q01DX001 (ip), vehicle: carboxymethylcellulose (CMC)
# [11] = dose: 200.0 mg/kg/injection, schedule: Q01DX001 (ip), vehicle: carboxymethylcellulose (CMC)
# [12] = dose: 400.0 mg/kg/injection, schedule: Q01DX001 (ip), vehicle: carboxymethylcellulose (CMC)
# [13] = dose: 25.0 mg/kg/injection, schedule: Q04DX003 (ip), vehicle: saline with Tween-80
# [14] = dose: 100.0 mg/kg/injection, schedule: Q04DX003 (ip), vehicle: Klucel (hydroxypropylcellulose) (HPC)
# [15] = dose: 200.0 mg/kg/injection, schedule: Q04DX003 (ip), vehicle: Klucel (hydroxypropylcellulose) (HPC)
# [16] = dose: 100.0 mg/kg/injection, schedule: Q01DX009 (ip), vehicle: saline with Tween-80
# [17] = dose: 200.0 mg/kg/injection, schedule: Q01DX009 (ip), vehicle: saline with Tween-80
# [18] = dose: 50.0 mg/kg/injection, schedule: Q04DX003 (ip), vehicle: saline
# [19] = dose: 400.0 mg/kg/injection, schedule: Q01DX001 (ip), vehicle: Klucel (hydroxypropylcellulose) (HPC)
# [20] = dose: 50.0 mg/kg/injection, schedule: Q01DX009 (ip), vehicle: saline with Tween-80
# [21] = dose: 400.0 mg/kg/injection, schedule: Q04DX003 (ip), vehicle: Klucel (hydroxypropylcellulose) (HPC)
# [22] = dose: 100.0 mg/kg/injection, schedule: Q04DX003 (ip), vehicle: saline with Tween-80
# [23] = dose: 200.0 mg/kg/injection, schedule: Q01DX009 (ip), vehicle: saline
smiles,measurement,setting,value
Cc1ccc(S(=O)(=O)N(c2ccccc2)C(C)C(=O)c2ccccc2)cc1 (stereo not drawn),T/C,"dose: 100.0 mg/kg/injection, schedule: Q01DX001 (ip), vehicle: other",104 % of control
same,T/C,"dose: 200.0 mg/kg/injection, schedule: Q01DX001 (ip), vehicle: other",92 % of control
same,T/C,"dose: 400.0 mg/kg/injection, schedule: Q01DX001 (ip), vehicle: other",95 % of control
Cn1c(O)c(C=N)c(=O)n(C)c1=O,T/C,[1],101 % of control
same,T/C,[2],100 % of control
same,T/C,[3],87 % of control
same,T/C,[4],98 % of control
Cc1ccc(N=Cc2ccccc2O)cc1,T/C,[5],93 % of control
same,T/C,[6],90 % of control
same,T/C,[7],93 % of control
CC(C)(C)N=C=NC(c1ccccc1)(c1ccccc1)c1ccccc1,T/C,[4],97 % of control
same,T/C,[8],94 % of control
same,T/C,[9],87 % of control
Cc1ccccc1NC(=O)NO,T/C,[10],103 % of control
same,T/C,[11],100 % of control
same,T/C,[12],105 % of control
CC(=O)Nc1ccc2c(c1)[nH]c(=O)c1ccccc12,T/C,[10],96 % of control
same,T/C,[11],93 % of control
same,T/C,[12],96 % of control
O=S1(=O)C=CCCC=C1,T/C,"dose: 50.0 mg/kg/injection, schedule: Q04DX002 (ip), vehicle: Klucel (hydroxypropylcellulose) (HPC)",105 % of control
same,T/C,"dose: 75.0 mg/kg/injection, schedule: Q04DX002 (ip), vehicle: Klucel (hydroxypropylcellulose) (HPC)",112 % of control
CC1(C)C2CCC3C(C#N)C(CCC#N)C=CC3C21 (stereo not drawn),T/C,"dose: 100.0 mg/kg/injection, schedule: Q04DX003 (sc), vehicle: olive oil, sesame oil, peanut oil",98 % of control
same,T/C,"dose: 200.0 mg/kg/injection, schedule: Q04DX003 (sc), vehicle: olive oil, sesame oil, peanut oil",97 % of control
same,T/C,"dose: 400.0 mg/kg/injection, schedule: Q04DX003 (sc), vehicle: olive oil, sesame oil, peanut oil",101 % of control
C[N+](C)(C)C1(Cc2ccc(Br)cc2)c2ccccc2-c2ccccc21,T/C,[13],88 % of control
OC(c1ccccc1)c1ccccc1,T/C,[4],95 % of control
same,T/C,[8],100 % of control
same,T/C,[9],97 % of control
Cc1cc(N(CCOS(C)(=O)=O)CCOS(C)(=O)=O)ccc1C=Nc1ccc(-c2csc(-c3ccc(Br)cc3)n2)cc1,T/C,[3],109 % of control
same,T/C,[14],150 % of control
same,T/C,"dose: 150.0 mg/kg/injection, schedule: Q01DX009 (ip), vehicle: saline",101 % of control
same,T/C,[15],91 % of control
N#CC1(c2ccc3c(c2)OCO3)C(c2ccc3c(c2)OCO3)CC(O)(c2ccccc2)C1C(=O)c1ccccc1 (stereo not drawn),T/C,[16],96 % of control
same,T/C,[17],89 % of control
same,T/C,"dose: 400.0 mg/kg/injection, schedule: Q01DX009 (ip), vehicle: saline with Tween-80",102 % of control
CCN1CCC(CN2c3ccccc3Sc3ccccc32)C1 (stereo not drawn),T/C,[1],105 % of control
same,T/C,"dose: 25.0 mg/kg/injection, schedule: Q04DX003 (ip), vehicle: saline",94 % of control
same,T/C,[2],110 % of control
same,T/C,[18],102 % of control
same,T/C,"dose: 100.0 mg/kg/injection, schedule: Q01DX001 (ip), vehicle: saline",98 % of control
same,T/C,[4],112 % of control
COc1cc([N+](=O)[O-])ccc1C(=O)NC(CCC(=O)O)C(=O)O (stereo not drawn),T/C,[6],95 % of control
same,T/C,[7],106 % of control
same,T/C,[19],100 % of control
CN(C)C(=O)Sc1cc(Cl)c(S(=O)(=O)F)cc1Cl,T/C,"dose: 100.0 mg/kg/injection, schedule: Q01DX009 (ip), vehicle: Klucel (hydroxypropylcellulose) (HPC)",97 % of control
same,T/C,"dose: 200.0 mg/kg/injection, schedule: Q01DX009 (ip), vehicle: Klucel (hydroxypropylcellulose) (HPC)",100 % of control
same,T/C,"dose: 400.0 mg/kg/injection, schedule: Q01DX009 (ip), vehicle: Klucel (hydroxypropylcellulose) (HPC)",90 % of control
COc1ccc(-c2ccccc2C(=O)O)cc1,T/C,[10],107 % of control
same,T/C,[11],96 % of control
same,T/C,[12],100 % of control
CC(=O)c1cc(Cl)ccc1Cl,T/C,"dose: 100.0 mg/kg/injection, schedule: Q04DX002 (ip), vehicle: saline",97 % of control
same,T/C,"dose: 200.0 mg/kg/injection, schedule: Q04DX002 (ip), vehicle: saline",103 % of control
same,T/C,"dose: 400.0 mg/kg/injection, schedule: Q04DX002 (ip), vehicle: saline",103 % of control
CCN(C(=O)Nc1ccc(F)c(Cl)c1)c1ccc(Cl)cc1,T/C,[20],100 % of control
same,T/C,[16],96 % of control
same,T/C,[17],96 % of control
CC(=O)OCc1cc(=O)c(OC(C)=O)co1,T/C,[14],112 % of control
same,T/C,[15],96 % of control
same,T/C,[21],98 % of control
NC(=O)c1cc([N+](=O)[O-])ccc1N=NN(CCCl)CCCl,T/C,[22],114 % of control
same,T/C,"dose: 177.0 mg/kg/injection, schedule: Q04DX003 (ip), vehicle: saline with Tween-80",111 % of control
same,T/C,[17],107 % of control
same,T/C,"dose: 266.0 mg/kg/injection, schedule: Q04DX003 (ip), vehicle: saline with Tween-80",114 % of control
same,T/C,"dose: 400.0 mg/kg/injection, schedule: Q04DX003 (ip), vehicle: saline with Tween-80",165 % of control
[NH-]c1ccccc1C(=O)O.[NH-]c1ccccc1C(=O)O.[Ni+2],T/C,[20],100 % of control
same,T/C,[17],105 % of control
O=[N+]([O-])c1cccc(S(=O)(=O)O)c1,T/C,[2],93 % of control
same,T/C,[18],97 % of control
same,T/C,[3],87 % of control
same,T/C,[4],96 % of control and 100 % of control
same,T/C,[23],93 % of control
same,T/C,[8],100 % of control and 102 % of control
same,T/C,[9],90 % of control
CCOC(=O)/C(C#N)=C(\C)c1cccc(C)c1,T/C,[13],94 % of control
same,T/C,"dose: 50.0 mg/kg/injection, schedule: Q04DX003 (ip), vehicle: saline with Tween-80",94 % of control
same,T/C,[22],102 % of control
O=C(OC1OC(COCc2ccccc2)C(OCc2ccccc2)C1OCc1ccccc1)c1ccccc1 (stereo not drawn),T/C,[6],92 % of control and 98 % of control
same,T/C,[7],100 % of control and 98 % of control
same,T/C,[19],94 % of control and 113 % of control
Cc1ccc(S(=O)(=O)OCCC2CCCCC2COS(=O)(=O)c2ccc(C)cc2)cc1 (stereo not drawn),T/C,[3],100 % of control
same,T/C,[14],100 % of control
same,T/C,[23],91 % of control
same,T/C,[15],99 % of control
same,T/C,"dose: 400.0 mg/kg/injection, schedule: Q01DX009 (ip), vehicle: saline",96 % of control
same,T/C,[21],94 % of control
O=C(O)/C(Cc1cccc(=O)n1Cc1ccccc1)=N\O,T/C,"dose: 75.0 mg/kg/injection, schedule: Q01DX001 (ip), vehicle: Klucel (hydroxypropylcellulose) (HPC)",97 % of control
same,T/C,"dose: 150.0 mg/kg/injection, schedule: Q01DX001 (ip), vehicle: Klucel (hydroxypropylcellulose) (HPC)",97 % of control
same,T/C,"dose: 300.0 mg/kg/injection, schedule: Q01DX001 (ip), vehicle: Klucel (hydroxypropylcellulose) (HPC)",94 % of control
O=C1CCCCC1c1sc([N+](=O)[O-])cc1[N+](=O)[O-] (stereo not drawn),T/C,"dose: 100.0 mg/kg/injection, schedule: Q04DX002 (ip), vehicle: saline with Tween-80",93 % of control
same,T/C,"dose: 200.0 mg/kg/injection, schedule: Q04DX002 (ip), vehicle: saline with Tween-80",104 % of control
Cc1ccc(NC(=O)N(C)N=O)cc1,T/C,"dose: 17.7 mg/kg/injection, schedule: Q01DX009 (ip), vehicle: carboxymethylcellulose (CMC)",118 % of control
same,T/C,"dose: 26.6 mg/kg/injection, schedule: Q01DX009 (ip), vehicle: carboxymethylcellulose (CMC)",117 % of control
same,T/C,"dose: 40.0 mg/kg/injection, schedule: Q01DX009 (ip), vehicle: carboxymethylcellulose (CMC)",120 % of control
same,T/C,[5],119 % of control
same,T/C,"dose: 60.0 mg/kg/injection, schedule: Q01DX009 (ip), vehicle: carboxymethylcellulose (CMC)",88 % of control
same,T/C,"dose: 89.0 mg/kg/injection, schedule: Q01DX001 (ip), vehicle: carboxymethylcellulose (CMC)",107 % of control
same,T/C,[6],111 % of control
same,T/C,[10],116 % of control
same,T/C,"dose: 133.0 mg/kg/injection, schedule: Q01DX001 (ip), vehicle: carboxymethylcellulose (CMC)",122 % of control
same,T/C,[7],114 % of control
same,T/C,[19],114 % of control
O=c1[nH]cnc2nn(C3OC(CO)C(O)C3O)cc12 (stereo not drawn),T/C,"dose: 100.0 mg/kg/injection, schedule: Q01DX005 (ip), vehicle: saline",105 % of control
same,T/C,"dose: 200.0 mg/kg/injection, schedule: Q01DX005 (ip), vehicle: saline",104 % of control
